Earlier results on 1 compound are cited in US9072754B2, “Process for obtaining non-allergic propolis” (MR. GIUSEPPE MARIA RICCHIUTO, priority 2010, dated 2015).

Each structure is given as a SMILES string.

The conditions of this data set: among the compounds of the LB-1 fraction of propolis; literature.

Take `CC(C)=CCOC(=O)/C=C/c1ccc(O)c(O)c1` [3-methyl-2-butenyl-caffeate, 3-methyl-2-butenyl caffeate]: the allergenic effect entry was “the most allergenic effect”.
